Laboratory results as given in patent US8822449B2, “Substituted aminoindanes and analogs thereof, and the pharmaceutical use thereof” (Sanofi, priority 2008, dated 2014).
pIC50: −log10 of the molar value.

Molecular target: T1, sodium-proton exchanger of subtype 3 (NHE3) (Homo sapiens, UniProt P48764)
T1 construct: expressed in transfected cells
T1 sequence (P48764 26-834): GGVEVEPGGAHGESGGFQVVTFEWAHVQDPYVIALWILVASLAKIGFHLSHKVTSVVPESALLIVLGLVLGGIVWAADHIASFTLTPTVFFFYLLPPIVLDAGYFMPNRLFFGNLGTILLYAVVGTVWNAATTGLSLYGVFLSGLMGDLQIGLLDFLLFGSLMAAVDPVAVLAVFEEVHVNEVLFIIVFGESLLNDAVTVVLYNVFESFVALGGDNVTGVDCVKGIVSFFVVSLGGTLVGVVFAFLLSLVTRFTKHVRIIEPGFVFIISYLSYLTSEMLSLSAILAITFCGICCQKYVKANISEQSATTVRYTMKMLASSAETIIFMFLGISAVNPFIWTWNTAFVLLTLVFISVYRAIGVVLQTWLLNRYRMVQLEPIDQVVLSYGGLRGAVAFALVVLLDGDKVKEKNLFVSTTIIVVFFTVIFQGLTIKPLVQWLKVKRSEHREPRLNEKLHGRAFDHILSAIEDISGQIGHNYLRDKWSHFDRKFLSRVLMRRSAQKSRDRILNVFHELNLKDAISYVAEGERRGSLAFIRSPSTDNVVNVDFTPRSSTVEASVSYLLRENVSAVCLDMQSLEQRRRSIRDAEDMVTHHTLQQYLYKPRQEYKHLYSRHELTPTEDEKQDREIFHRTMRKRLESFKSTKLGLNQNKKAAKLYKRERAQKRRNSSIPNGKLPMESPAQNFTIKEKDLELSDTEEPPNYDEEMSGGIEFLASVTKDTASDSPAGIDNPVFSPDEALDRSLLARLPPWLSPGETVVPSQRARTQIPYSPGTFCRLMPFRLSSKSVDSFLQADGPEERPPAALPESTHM
Experiment: Recovery of intracellular pH (pHi) after acidification in LAP1 cells stably expressing NHE3 (BCECF fluorescence, FLIPR)
Assay type: cell-based
Conditions: LAP1, read-out: Activity range (inhibitory effect on NHE3)

| Structure (SMILES) | inhibition at 10 µM [%] |
| --- | --- |
| CC(=O)Nc1ccccc1OC1c2ccccc2CC1N1CCCC1 (racemic) [Example 635, N-[2-(rac-trans-(1,2)-2-pyrrolidin-1-ylindan-1-yloxy)phenyl]acetamide] | 20 to 50 |

Same assay, conditions: LAP1 cells stably expressing NHE3; pH recovery after acidification; range 1 is % inhibition at 10 μM; read-out: Activity range (inhibitory effect on NHE3)

| pIC50 | inhibition at 10 µM [%] | Structure (SMILES) |
| --- | --- | --- |
| > 6.00 |  | Cc1nnc(C)n1-c1ccc(O[C@H]2c3cc(Cl)ccc3C[C@@H]2N2CC[C@@H](O)C2)cc1 [Example 145, (R)-1-{trans-(1S,2S)-6-chloro-1-[4-(3,5-dimethyl-[1,2,4]triazol-4-yl)phenoxy]indan-2-yl}pyrrolidin-3-ol] |
| > 6.00 |  | CS(=O)(=O)c1ccc(O[C@H]2c3cc(Cl)cc(Cl)c3C[C@@H]2N2CC[C@H](O)C2)cc1 [Example 198, (S)-1-[trans-(1S,2S)-4,6-dichloro-1-(4-methanesulfonylphenoxy)indan-2-yl]pyrrolidin-3-ol] |
| 5.00 to 6.00 |  | CC1(C)NC(=O)N(c2ccc(Cl)c(O[C@H]3c4cc(Cl)cc(Cl)c4C[C@@H]3N3CC[C@@H](O)C3)c2)C1=O [Example 431, 3-{4-chloro-3-[(1S,2S)-4,6-dichloro-2-((R)-3-hydroxypyrrolidin-1-yl)indan-1-yloxy]phenyl}-5,5-dimethylimidazolidine-2,4-dione] |
|  | 20 to 50 | CS(=O)(=O)c1ccc(O[C@H]2c3ccccc3C[C@@H]2NCc2ccccc2)cc1 (racemic) [Example 597, benzyl[1-(4-methanesulfonylphenoxy)indan-2-yl]amine] |
| 5.00 to 6.00 |  | CC(=O)Nc1cccc(O[C@H]2c3cc(Cl)ccc3C[C@@H]2N2CCNCC2)c1 (racemic) [Example 657, N-[3-(rac-trans-(1,2)-6-chloro-2-piperazin-1-ylindan-1-yloxy)phenyl]acetamide] |
| > 6.00 |  | CS(=O)(=O)c1ccc(O[C@H]2c3cc(Cl)cc(Cl)c3C[C@@H]2N2CC[C@@H](F)C2)cc1 [Example 100, (R)-1-[trans-(1S,2S)-4,6-dichloro-1-(4-methanesulfonylphenoxy)indan-2-yl]-3-fluoropyrrolidine] |
| > 6.00 |  | N#Cc1ccc(O[C@H]2c3ccccc3CC[C@@H]2N2CCC[C@H](N)C2)c(F)c1 (racemic) [Example 533, 4-[rac-trans-(1,2)-2-((S)-3-aminopiperidin-1-yl)-1,2,3,4-tetrahydronaphthalen-1-yloxy]-3-fluorobenzonitrile] |
|  | 20 to 50 | Cc1cc(O[C@H]2c3ccccc3CC[C@@H]2N2CCC[C@@H](N)C2)ccc1Cl (racemic) [Example 65, (R)-1-[rac-trans-(1,2)-1-(4-chloro-3-methylphenoxy)-1,2,3,4-tetrahydronaphthalen-2-yl]piperidin-3-ylamine] |
| 5.00 to 6.00 |  | N[C@@H]1CCCN([C@H]2CCc3ccccc3[C@@H]2Oc2ccc(-n3cncn3)cc2)C1 (racemic) [Example 61, (R)-1-[rac-trans-(1,2)-1-(4-[1,2,4]triazol-1-ylphenoxy)-1,2,3,4-tetrahydronaphthalen-2-yl]piperidin-3-ylamine] |
| 5.00 to 6.00 |  | O=C1CNC(=O)N1c1ccc(Cl)c(O[C@H]2c3cc(Cl)cc(F)c3C[C@@H]2N2CC[C@@H](O)C2)c1 [Example 438, 3-{4-chloro-3-[(1S,2S)-6-chloro-4-fluoro-2-((R)-3-hydroxypyrrolidin-1-yl)indan-1-yloxy]phenyl}imidazolidine-2,4-dione] |
| > 6.00 |  | CN1CC(=O)N(c2ccc(O[C@H]3c4cc(Cl)cc(Cl)c4C[C@@H]3N3CC[C@@H](O)C3)c(Cl)c2)C1=O [Example 422, 3-{3-chloro-4-[(1S,2S)-4,6-dichloro-2-((R)-3-hydroxypyrrolidin-1-yl)indan-1-yloxy]phenyl}-1-methylimidazolidine-2,4-dione] |
| > 6.00 |  | O=C1CNC(=O)N1c1ccc(O[C@H]2c3cc(Cl)cc(Cl)c3C[C@@H]2N2CC[C@@H](O)C2)cc1 [Example 426, 3-{4-[(1S,2S)-4,6-dichloro-2-((R)-3-hydroxypyrrolidin-1-yl)indan-1-yloxy]phenyl}imidazolidine-2,4-dione] |
| > 6.00 |  | Cn1ccn(-c2ccc(Cl)c(O[C@H]3c4cc(Cl)cc(F)c4C[C@@H]3N3CC[C@@H](O)C3)c2)c1=O [Example 339, 1-{4-chloro-3-[(1S,2S)-6-chloro-4-fluoro-2-((R)-3-hydroxypyrrolidin-1-yl)indan-1-yloxy]phenyl}-3-methyl-1,3-dihydroimidazol-2-one] |
| 5.00 to 6.00 |  | N#Cc1ccc(O[C@H]2c3cc(Cl)cc(Cl)c3C[C@@H]2N2CC[C@H](O)C2)c(F)c1 [Example 555, 4-[trans-(1S,2S)-4,6-dichloro-2-((S)-3-hydroxypyrrolidin-1-yl)indan-1-yloxy]-3-fluorobenzonitrile] |
| > 6.00 |  | CS(=O)(=O)c1ccc(OC2c3ccccc3CC2N2CCC[C@@H](N)C2)c(Cl)c1Cl (mixture of isomers) [Example 31, (R)-1-[rac-trans-(1,2)-1-(2,3-dichloro-4-methanesulfonylphenoxy)indan-2-yl]piperidin-3-ylamine] |
| > 6.00 |  | Cc1nnc(C)n1-c1ccc(O[C@H]2c3cc(Cl)cc(Cl)c3C[C@@H]2N2CCCC2)cc1 [Example 500, 4-[4-(trans-(1S,2S)-4,6-dichloro-2-pyrrolidin-1-ylindan-1-yloxy)phenyl]-3,5-dimethyl-4H-[1,2,4]triazole] |
| > 6.00 |  | Cc1nnc(C)n1-c1ccc(O[C@H]2c3cc(Cl)cc(Cl)c3C[C@@H]2N2CCS(=O)(=O)CC2)c(F)c1 [Example 565, 4-{trans-(1S,2S)-4,6-dichloro-1-[4-(3,5-dimethyl-[1,2,4]triazol-4-yl)-2-fluorophenoxy]indan-2-yl}thiomorpholine 1,1-dioxide] |
| 5.00 to 6.00 |  | CS(=O)(=O)c1ccc(O[C@@H]2c3ccccc3C[C@H]2NCC2CCC2)cc1 (racemic) [Example 717, Cyclobutylmethyl-[rac-trans-(1,2)-1-(4-methanesulfonyl-phenoxy)-indan-2-yl]-amine] |
| > 6.00 |  | CN1CCC2CN([C@H]3Cc4c(Cl)cc(Cl)cc4[C@@H]3Oc3ccc(S(C)(=O)=O)cc3)CC21 (single isomer, unassigned) [Example 581] |
|  | 20 to 50 | N[C@H]1CCCN([C@H]2CCc3ccccc3[C@@H]2Oc2ccc(F)cc2F)C1 (racemic) [Example 149, (S)-1-[rac-trans-(1,2)-1-(2,4-difluorophenoxy)-1,2,3,4-tetrahydronaphthalen-2-yl]piperidin-3-ylamine] |
| > 6.00 |  | NS(=O)(=O)c1ccc(O[C@H]2c3ccccc3C[C@@H]2N2CCCCC2)cc1 (racemic) [Example 465, 4-(rac-trans-(1,2)-2-piperidin-1-ylindan-1-yloxy)benzenesulfonamide] |
| 5.00 to 6.00 |  | N#Cc1ccc(O[C@@H]2c3ccccc3C[C@H]2N2CCC(CN)CC2)cc1Cl (racemic) [Example 546, 4-[rac-trans-(1,2)-2-(4-aminomethylpiperidin-1-yl)indan-1-yloxy]-2-chlorobenzonitrile] |
|  | 20 to 50 | Cc1cc(O[C@H]2c3cc(Cl)cc(F)c3C[C@@H]2N2CCNCC2)ccc1S(=O)(=O)C(F)(F)F (racemic) [Example 290, 1-[rac-trans-(1,2)-6-chloro-4-fluoro-1-(3-methyl-4-trifluoromethanesulfonylphenoxy)indan-2-yl]piperazine] |
| > 6.00 |  | Cc1nnc(C)n1-c1ccc(O[C@H]2c3cc(Cl)cc(Cl)c3C[C@@H]2N2CC[C@@](C)(O)C2)cc1 (racemic) [Example 111, (R)-1-{(1S,2S)-4,6-dichloro-1-[4-(3,5-dimethyl-[1,2,4]triazol-4-yl)phenoxy]indan-2-yl}-3-methylpyrrolidin-3-ol] |
